Entries after “also recorded” stand apart in the source; their conditions may differ. Numbered stars: 1 amine (or outer) side, 2 acyl side, 3 side chain; on linkers, the order of the positions; unused ones are H or OH. Bridge positions count the residues as written; N and C are the ends. Square brackets hold non-standard residues; d marks the D form. Peptide text beside a SMILES is read from it. I, II: the chains in the order shown. Actinocin(9to1) = Cc1c2oc3c(C)ccc(C(=O)[*:1])c3nc-2c(C(=O)[*:2])c(N)c1=O; NMeV = CN[C@H](C(=O)O)C(C)C; Sar = CNCC(=O)O
How the values were obtained:
cyclin A/Cdk2 [1] = biological target: T1, cyclin A/Cdk2 (Homo sapiens, UniProt P20248+P24941); assay: In vitro cyclin A/Cdk2 kinase assay with purified proteins (GST-Rb-C substrate); type: biochemical; conditions: for Preventing Skp2N from protecting cyclin A/Cdk2 from inhibition by p27: cyclin A/Cdk2 3 nM, p27 5 nM, Skp2N 80 nM, increasing amounts of peptide
T1 construct: made in house; host or cells: insect cells (baculovirus)
Experimental: (§1) Cyclin A/Cdk2 kinase assays were performed as described previously (Ji et al., 2004). Both immuno-purified myc-cyclin A/Cdk2 on beads and GST-purified and eluted GST-cyclin A/Cdk2 (baculovirus vectors for GST-cyclin A and Cdk2 were provided by Brian Dynlacht) were used. The amounts of purified proteins were determined by comparing them with known amounts of standard proteins in Coomassie blue stained gels. Phosphorylation of GST-Rb-C was quantified with the ImageQuant software. The Ki of various proteins was determined by non-linear least squares analysis. To determine the amounts of various proteins in synchronized HeLa cells, extracts representing 7.5×10^4 HeLa cells were resolved with known amounts of purified proteins and compared in the same Western blots. Actual amounts of proteins in 7.5×10^4 HeLa cells were then determined (for example, the amounts of p27, Skp2, and cyclin A in 7.5×10^4 HeLa cells were determined to be about 0.1, 0.2, and 0.1 pmoles, respectively, at 14 hours post-replating; and about 0.01, 0.1, and 1.0 pmoles, respectively, at 19 hours post-replating).
For kinase reactions, insect cell-produced and purified GST-cyclin A/Cdk2 was used at a concentration of ˜3 nM, which was the lowest concentration that yielded readily detectible phosphorylation of GST-Rb-C here. Purified p27, GST-Skp2, and Skp2N were titrated into the kinase reaction over a wide range of concentrations (FIGS. 7A, B, and C). Phosphorylation of Rb-C was measured and plotted, and the Ki of these various proteins were determined by non-linear least squares analysis (FIG. 7F).
Since Skp2 competes with p27 for binding to cyclin A and Skp2's Ki is about 100-fold higher than p27's Ki, it can be reasoned that, at concentrations well below its Ki, Skp2 might be able to protect cyclin A/Cdk2 from inhibition by p27. To test this hypothesis, the same cyclin A/Cdk2 kinase assay was carried out to determine the inhibitory activity of p27 in the presence of 80 nM of Skp2N.
It was then determined whether the 4060 peptide could prevent Skp2N from protecting cyclin A/Cdk2 from inhibition by p27. […] When 80 nM of Skp2N was included, 5 nM of p27 lost its ability to inhibit the kinase activity (lane 3). […] These findings indicate that the Skp2-cyclin A interaction is also a potential target to inhibit cyclin A kinase activity in tumor cells, particularly those overexpressing Skp2.
To test this prediction, various peptides were added to an in vitro kinase reaction with purified cyclin A/Cdk2 (˜3 nM concentration). An E2F1-derived RxL peptide, LDL peptide, was used for comparison since it could inhibit cyclin A/Cdk2 kinase activity (Sun et al., 2006, and see next section). Since a TAT sequence was later added to these peptides for trans-membrane delivery (see next section), two versions of each peptide (without TAT and with TAT) was used in these kinase assays. These two versions of peptides yielded identical results and therefore only presented results with one version of the peptides.
The effects of the 4060 peptide on cyclin A/Cdk2 kinase activity in the presence of Skp2 and p27 were then determined.

[2] = tested on: human diploid fibroblasts WI-38; assay: Cell survival MTS assay, WI-38; type: cell-based; conditions: 120 μM, 24 hours
Experimental: In comparison, both TAT-Umt and TAT-4060 inhibited cyclin A/Cdk2 kinase activity in vitro at peptide concentrations of 100 μM (FIG. 11B). It is currently unknown how peptide concentrations in the culture media translate into intro-cellular peptide concentrations.
(§2) Cell proliferation and survival assays. For the cell proliferation assay shown in FIG. 10D, 1×10^4 cells were plated in each well of 24 well plates and allowed to grow for a course of four days in the presence of 10% FBS. Cell numbers were counted every day from triplet wells. For cell survival assays in FIGS. 13, 14 and 15, 1×10^3 cells were plated in each well of 96 well plates and allowed to adhere overnight in the presence of 10% FBS. The cells were washed once with Opti-MEM (GIBCO) followed by incubation with different concentrations of peptides in Opti-MEM for 24 hours in triplicate. MTS assay was then performed following manufacturer's protocol (Promega).

U2OS cells [3] = conditions: for Cell killing effect: twenty four hours after addition of peptides
Experimental: It is currently unknown how peptide concentrations in the culture media translate into intro-cellular peptide concentrations.
Whether artificial manipulation of Skp2 protein levels in U2OS cells could change the IC50 of various peptides was also investigated.
as §2

[4] = biological target: T2, Skp2-cyclin A interaction (Homo sapiens, UniProt P20248); assay: GST pull-down, blocking of Skp2-cyclin A interaction by peptides; type: binding; conditions: for Blocking of Skp2N-cyclin A interaction: GST-Skp2N, myc-cyclin A/Cdk2 transfected 293T cell extracts
T2 construct: expressed in transfected cells; host or cells: 293T (cyclin A/Cdk2)
Experimental: GST pull down, p27 ubiquitylation assay, and cyclin A kinase assay. GST fusion proteins were purified on GSH-beads (Amersham), which were then incubated with transfected cell extracts for 1 hour in 4° C. with rocking. The beads were washed three times with lysis buffer (25 mM Hepes pH 7.6, 100 mM KCl, 0.1 mM EDTA, 10 mM MgCl2, 0.1% NP-40, 10% glycerol, 1 mM DTT) before analysis by SDS-PAGE and Western blotting.
Skp2-cyclin A interaction and p27-cyclin A interaction can be blocked by distinct peptides. An important aspect of the RxL-1-IP interaction is that it can be blocked by a short RxL peptide (Adams et al., 1996). If the Skp2-cyclin A/Cdk2 interaction and the p27-cyclin A/Cdk2 interaction are mediated by different sequences on both sides of the interaction, as shown above, it can be predicted that the RxL peptide should not block Skp2-cyclin A interaction. […] Peptide concentrations required for their respective blocking activities were similar for RxL and 4060 peptides.

cyclin A/Cdk2 [5] = biological target: T1, cyclin A/Cdk2; assay: IP-kinase assay with myc-cyclin A/Cdk2 transfected 293T cell extract; type: biochemical; conditions: increasing amounts of peptide
Experimental: In panel A, an IP-kinase assay was performed with myc-cyclin A/Cdk2 transfected 293T cell extract in the presence of increasing amounts of RxL or 4060 peptides. Phosphorylation of GST-Skp2N is visible in this gel. […] As indicated, increasing amounts of the 4060 or 4060AAAA peptides were included in the reactions. Phosphorylation of Rb-C was quantified and plotted as shown.
as §1, with “To determine the amounts of various proteins in synchronized HeLa cells, extracts representing 7.5×10^4 HeLa cells were resolved with known amounts of purified proteins and compared in the same Western blots.” left out, “post-replating). […]” for “post-replating).”

[6] = biological target: T3, interaction between cellular Skp2 and cyclin A/Cdk2 (Homo sapiens, UniProt P20248); assay: Coimmunoprecipitation with cyclin A from peptide-treated U2OS cells; type: cell-based; conditions: 50 μM peptide, twelve hours
T3 construct: endogenous in cells; host or cells: U2OS
Experimental: FIG. 12 is photographs of western blots and kinase assays and graphs showing the effects of trans-membrane delivery of the 4060 peptide. In Panel A, U2OS cells were treated with 50 μM of indicated peptide for twelve hours. Cell extracts were prepared for immunoprecipitation and Western blot analysis as indicated. […] In Panel C, the same extracts were used in IP-kinase assays as indicated. The extent of phosphorylation was quantified and plotted.
The loss of Skp2-cyclin A/Cdk2 interaction was not due to a reduction in levels of these proteins (FIG. 12B). Importantly, cellular p27 protein levels were not affected by the blocking peptide. […] Here, it is important to point out that although we used p27 as an inhibitor of cyclin A-associated kinase activity in purified kinase reactions with the 4060 blocking peptide shown in FIG. 11, the effects of blocking Skp2-cyclin A interaction on cyclin A-associated kinase activity in cells is unlikely to be mediated by p27 alone. There was no significant interaction between p27 and cyclin A in U2OS cells before and after treatment of TAT-4060. p27 family members p21 and p57, and the pocket proteins p107 and p130 (Adams et al., 1996) may bind and inhibit cyclin A-associated kinase activity through the RxL-HP interaction mechanism. […]

U2OS cells [7] = assay: Flow cytometry cell cycle profile after actinomycin D; type: cell-based, human; conditions: actinomycin D 180 nM, 20 hours
Experimental: Drug treatment and various routine assays. Actinomycin D (Sigma) treatment was for 20-22 hours at 180 nM. To arrest HeLa cells in mitotic phase, cells were treated with 100 ng/ml nocodazole (Sigma) for 16-17 hours. Western blotting, immunoprecipitation, indirect immunofluorescence, and flow cytometry analysis to determine cell cycle profiles were all performed with standard protocols and as described previously (Ji et al., 2004).
The AAAA mutation compromises Skp2's proliferation stimulatory activity without affecting its ability to cause degradation of cellular p27 and p21. […] Similar to the experiment shown in FIG. 6B, U2OS cells were treated with actinomycin D, which led to activation of p53, stimulation of p21 expression, and G1 cell cycle arrest manifested by a 20% increase in G1 phase cells (FIGS. 9A and B). Skp2 was overexpressed in U2OS cells to determine whether Skp2 could counter the G1 cell cycle arrest mediated by this actinomycin D triggered checkpoint.

Compound | WI-38 cells killed [2] | Change of peptide effect by Skp2 knockdown or overexpression (U2OS cells [3]; U2OS) | Cell killing effect (U2OS cells [3]; U2OS) | Preventing Skp2N from protecting cyclin A/Cdk2 from inhibition by p27 (cyclin A/Cdk2 [1]) | Blocking of Skp2N-cyclin A interaction [4] | also measured
CC(C)C[C@H](NC(=O)[C@H](CC(=O)O)NC(=O)[C@H](CC(C)C)NC(=O)[C@H](CCCNC(=N)N)NC(=O)[C@H](CCCNC(=N)N)NC(=O)[C@H](CCCCN)NC(=O)[C@@H](NC(=O)[C@@H]1CCCN1C(=O)CNC(=O)[C@H](CCCNC(=N)N)NC(=O)[C@H](CCCNC(=N)N)NC(=O)[C@H](CCCNC(=N)N)NC(=O)[C@H](CCC(N)=O)NC(=O)[C@H](CCCNC(=N)N)NC(=O)[C@H](CCCNC(=N)N)NC(=O)[C@H](CCCCN)NC(=O)[C@H](CCCCN)NC(=O)[C@H](CCCNC(=N)N)NC(=O)CNC(=O)[C@@H](N)Cc1ccc(O)cc1)C(C)C)C(=O)O [TAT-LDL, reference compound] | 25% | not affected by Skp2 knockdown or overexpression |  |  |  | Inhibition of cyclin A/Cdk2 kinase activity towards GST-Rb-C (cyclin A/Cdk2 [1]; 1 μM peptide, cyclin A/Cdk2 ~3 nM): ten-fold; Cell killing effect of single peptide (U2OS cells [3]; U2OS, 1 or 2 μM, 24 hours): neither TAT-LDL nor TAT-4060 exhibited any cell killing effects
YGRKKRRQRRRGETDHQYLAESS (TAT-Umt) [reference compound] | no effect | not affected by Skp2 knockdown or overexpression | did not have cell killing effects |  |  | Inhibitory effect on cyclin A/Cdk2 kinase activity (cyclin A/Cdk2 [1]; 1 μM and 10 μM peptide): did not show inhibitory effect; Inhibition of cyclin A/Cdk2 kinase activity (cyclin A/Cdk2 [1]; 100 μM peptide): significant inhibition; Cell killing effect at 120 μM (U2OS cells [3]; 120 μM): did not exhibit cell killing effects
KTSEAASGMGVAAAEKEE (peptide 4060AAAA) [4060 peptide with the four conserved residues mutated to alanine, reference compound] |  |  |  | did not have significant effects; also recorded: much weaker in disrupting the protective effect of Skp2N | abolished the blocking activity | 
KTSELLSGMGVSALEKEE (listed as Homo sapiens) [compound 4060] |  |  |  | p27 gradually regained its inhibitory effects; also recorded: abolished this protective effect in a dose-dependent manner | can block | Blocking of binding between full-length GST-Skp2 and cyclin A/Cdk2 ([4]; full-length GST-Skp2): blocked binding; Effect of peptide itself on cyclin A/Cdk2 kinase activity towards Rb-C (cyclin A/Cdk2 [5]): did not
YGRKKRRQRRRGKTSEAASGMGVAAAEKEE (TAT-4060AAAA) [reference compound] |  |  | did not have significant cell killing effects |  |  | Dissociation of interaction between cellular Skp2 and cyclin A/Cdk2 [6]: did not have this effect
Cc1c2oc3c(C)ccc(C(=O)N[C@@H]4C(=O)N[C@H](C(C)C)C(=O)N5CCC[C@H]5C(=O)N(C)CC(=O)N(C)[C@@H](C(C)C)C(=O)O[C@@H]4C)c3nc-2c(C(=O)N[C@@H]2C(=O)N[C@H](C(C)C)C(=O)N3CCC[C@H]3C(=O)N(C)CC(=O)N(C)[C@@H](C(C)C)C(=O)O[C@@H]2C)c(N)c1=O [actinomycin D, Actinomycin D] (I: T[dV]P[Sar][NMeV] / II: T[dV]P[Sar][NMeV]; ester I:1-I:C, II:1-II:C; linker I:N-II:N via Actinocin(9to1)) |  |  |  |  |  | Increase in G1 phase cells (U2OS cells [7]): 20%
